Converted amounts (≈) assume the structure as drawn.
Tests used:
Alternaria alternata = assay: Painted discs with or without UV irradiation before inoculation (defacement); format: cell-based; parameters: key: rating 10 = 0% defacement to 0 = 91-100% defacement; settings: +100 μg/mL in Olympic Home latex paint
Procedure: In a separate study, painted filter paper discs were irradiated with UV light from a 30 watt bulb for 2 hours and then inoculated with Alternaria alternata spores (“+UV” in the table below), or were inoculated without prior UV irradiation (“no UV” in the Table 4). The painted filter papers were incubated as discussed elsewhere herein, evaluated at 13 and 21 days post-inoculation for defacement by fungal growth and compared to similar painted filter paper discs that were not irradiated prior to inoculation.
Samples were evaluated at regular intervals. The intensity of the fungal growth was rated by estimating the percentage of surface defacement using the following ratings: 10: 0% defacement; 9=1-10% defacement; 8=11-20% defacement; 7=21-30% defacement; 6=31-40% defacement; 5=41-50% defacement; 4=51-60% defacement; 3=61-70% defacement; 2=71-80% defacement; 1=81-90% defacement; and 0=91-100% defacement. A grid that divides the circular area into 20 equal sections as shown in FIG. 1 was used to estimate the extent (percent defacement) of fungal growth.

[1] = +UV (30 watt bulb, 2 hours, before inoculation), 13 days
[2] = +UV (30 watt bulb, 2 hours, before inoculation), 21 days

Row | SMILES | Average Defacement ± standard deviation for 3 replicates (Alternaria alternata; [1]) | Average Defacement ± standard deviation for 3 replicates (Alternaria alternata; [2]) | Average Defacement ± standard deviation for 3 replicates (Alternaria alternata; no UV, 13 days) | Average Defacement ± standard deviation for 3 replicates (Alternaria alternata; no UV, 21 days) | solubility (Solubility in water)
1 | OB1OCc2cc(F)ccc21 [Compound B9, 5-Fluoro-1,3-dihydro-2,1-benzoxaborol-1-ol] | 10.0 ± 0.0 | 8.3 ± 2.1 | 10.0 ± 0.0 | 9.0 ± 0.0 | 800 µg/mL (≈ 5.27 mM)
2 | CCCCNC(=O)OCC#CI [IPBC, 3-Iodo-2-propynylbutylcarbamate] | 9.7 ± 0.6 | 6.0 ± 4.4 | 8.3 ± 2.1 | 4.0 ± 4.0 | –

Source: patent US10160867B2, “Benzoxaborole-containing coating resistant to cellulose-supportable fungus” (THE PENN STATE RESEARCH FOUNDATION, priority 2015, dated 2018)
